Where two headings read alike, the source gives them in different places.
Columns and labels:
bladder cancer = conditions: human, in vivo; cited from earlier work
[1] = in vivo; cited from earlier work
[2] = tested on: MNU-induced cancerous lesions of the urinary bladder; assay type: in vivo, Fischer 344 rats
[3] = rat, in vivo
[4] = tested on: MNU-induced urinary bladder carcinoma; parameters: species or system rats; conditions: rat, in vivo
[5] = tested on: MNU-induced bladder cancer; assay type: in vivo, female Fischer 344 rats
[6] = tested on: bladder cancer induced by MNU; parameters: species or system Fischer rats; conditions: rat, in vivo
[7] = n = 10
[8] = tested on: MNU-induced urinary bladder carcinoma; experiment: Second experiment (Table 5): histological assessment, MNU-induced bladder cancer; assay type: in vivo, rats
Protocol: The therapeutic effect in urinary bladder cancer in animals was assessed by histological evaluation of the tissues. The criteria for assessing normality of the tissues examined for all the experiments using the same animal model, that is, the experiments reported in Table 4, Table 5, Table 6-A, Table 6-B, Table 6-C and Table 6-D are: normal tissue, flat hyperplasia, papillary hyperplasia.
Flat hyperplasia and papillary hyperplasia are reactive changes of an inflammatory nature, though benign, and their occurrence in the experiments for assessment of new drugs in animals affected with cancer, indicates a reversal of the cancer process to non-cancerous stages.
Metaplasia is defined as the replacement of a normal functional tissue with another tissue with different structure, with loss of function, and, thus, is considered a form of premalignant lesion.
[…] animals (n=50) were used in the experiment. The therapeutic effect was assessed through histological assessment of tissues, and the toxicological effect of the compounds, through assessment of the presence or absence of urinary bleeding also called hematuria.
All the animals in the experiment were subjected to intravesical applications of 1.5 mg/kg of n-methyl-n-nitrosourea (MNU) dissolved in 0.30 mL of sodium citrate, using a catheter, for 7 weeks. One group (control) of 10 animals was given only saline solution ([…]), also intravesically and for an equal period.
The purpose of using n-methyl-n-nitrosourea (MNU) was to experimentally induce immunosuppression and subsequently producing urinary bladder carcinoma. After treatment with MNU, the animals were divided into 05 groups of 10 animals each.
After this procedure, all the 10 animals of each group were sacrificed and their urinary bladders were removed for collection of tissue fragments, which were embedded in paraffin and prepared for histological section, by the usual techniques.
For the histological examinations, sections (2 μm) of the tissue of the urinary bladder were cut using microtome Zeiss, mounted on microscope slides, and stained with hematoxylin-eosin (HE), for subsequent pathology assessment, quantification of cellular changes and comparison between control and treatment groups.

[9] = 10 mg/kg intravesical, 14 weeks; n = 10
[10] = MNU-induced bladder cancer, 10 mg/kg intravesical (topical application), 14 weeks, n = 10
[11] = Table 5 experiment, intravesical

Compound: Bacillus Calmette-Guérin [BCG]
- patients with no recurrence of cancer during the follow-up period (bladder cancer): 39%
- rate of recurrence after 5 years (SWOG 8507) (bladder cancer): 60%
- recurrence rate after 5 years (bladder cancer): 34%
- relapse among patients who respond well in the early days (bladder cancer): 30%
- patients affected by local toxicity (cystitis, macroscopic haematuria) [1]: up to 75%
- patients with unwanted side effects (irritation, haematuria, dysuria) [1]: around 90%
- withdrawal from treatment because of local toxicity [1]: around 15%
- Flat hyperplasia, animals ([2]; rat, in vivo): 2(20%)
- High-grade intraepithelial carcinoma (carcinoma in situ-Tis), animals ([2]; rat, in vivo): 2(20%)
- Low-grade intraepithelial carcinoma, animals ([2]; rat, in vivo): 3(30%)
- Normal, animals ([2]; rat, in vivo): 0%
- Papillary hyperplasia, animals ([2]; rat, in vivo): 2(20%)
- Squamous metaplasia, animals ([2]; rat, in vivo): 1(10%)
- Toxicology: (Hematuria) [3]: Positive
- Toxicology: (Hematuria), % of animals [3]: (100%)
- degree of hematuria moderate, % of animals [3]: 80%
- degree of hematuria severe, % of animals [3]: 20%
- Toxicology: Presence of hematuria (rat, in vivo): Positive
- Toxicology: Presence of hematuria, % of animals (rat, in vivo): (100%)
- Toxicology: Presence of hematuria, number of animals (rat, in vivo): n = 10
- animals with positive result / positive outcome (histopathology) [4]: 40%
- Flat hyperplasia, number of animals ([5]; rat, in vivo): 2
- High-grade intraepithelial carcinoma (carcinoma in situ-Tis), number of animals ([5]; rat, in vivo): 3
- Low grade Intraepithelial neoplasia, number of animals ([5]; rat, in vivo): 2
- Normal, number of animals ([5]; rat, in vivo): 0
- Papillary carcinoma (Ta), number of animals ([5]; rat, in vivo): 1
- Papillary hyperplasia, number of animals ([5]; rat, in vivo): 2
- animals with recurrent/refractory malignant lesions ([5]; rat, in vivo): 06
- success rate / responders ([5]; rat, in vivo): 40%
- Flat hyperplasia, number of animals [6]: 1
- High-grade Intraurothelial Neoplasia - Carcinoma in situ (pTis), number of animals [6]: 1
- Low-grade Intraurothelial Neoplasia, number of animals [6]: 1
- Normal, number of animals [6]: 1
- Papillary Carcinoma (pTa), number of animals [6]: 2
- Papillary hyperplasia, number of animals [6]: 3
- Urothelial carcinoma with lamina propria invasion (pT1), number of animals [6]: 2
- recurrent or refractory / malignant lesions [6]: 83%
- recurrent or refractory lesions [6]: 17%
- responders [6]: 83%
- responders (absence of malignant lesions) [6]: 17%

Compound: S=P(N1CC1)(N1CC1)N1CC1 [Thiotepa]
- Chemical cystitis, (%) patients affected [1]: 20%
- Myelosuppression, (%) patients affected [1]: 10%

Compound: COc1cccc2c1C(=O)c1c(O)c3c(c(O)c1C2=O)C[C@@](O)(C(=O)CO)C[C@@H]3O[C@H]1C[C@H](N)[C@H](O)[C@H](C)O1 [Doxorubicin]
- Allergic reaction, (%) patients affected [1]: 1%
- Chemical cystitis, (%) patients affected [1]: 25%

Compound: CC(=O)O[C@@]12CO[C@@H]1C[C@H](O)[C@@]1(C)C(=O)[C@H](O)C3=C(C)[C@@H](OC(=O)[C@H](O)[C@@H](NC(=O)OC(C)(C)C)c4ccccc4)C[C@@](O)([C@@H](OC(=O)c4ccccc4)[C@H]21)C3(C)C [Docetaxel]
- Toxicology: (Hematuria), number of animals positive [7]: +10
- Flat hyperplasia, number of animals ([5]; rat, in vivo): 1
- High-grade intraepithelial carcinoma (carcinoma in situ-Tis), number of animals ([5]; rat, in vivo): 3
- Low grade Intraepithelial neoplasia, number of animals ([5]; rat, in vivo): 2
- Normal, number of animals ([5]; rat, in vivo): 1
- Papillary carcinoma (Ta), number of animals ([5]; rat, in vivo): 1
- Papillary hyperplasia, number of animals ([5]; rat, in vivo): 1
- Squamous metaplasia, number of animals ([5]; rat, in vivo): 1
- success rate / responders ([5]; rat, in vivo): 20%

Compound: Nc1ccn([C@@H]2O[C@H](CO)[C@@H](O)C2(F)F)c(=O)n1 [Gemcitabine]
- Toxicology: (Hematuria), number of animals in which absent [7]: in 06
- Toxicology: (Hematuria), number of animals positive [7]: +in 04
- Flat hyperplasia, number of animals ([5]; n = 10): 2
- High-grade intraepithelial carcinoma (carcinoma in situ-Tis), number of animals ([5]; n = 10): 4
- Low grade Intraepithelial neoplasia, number of animals ([5]; n = 10): 2
- Papillary hyperplasia, number of animals ([5]; n = 10): 2
- success rate / responders ([5]; rat, in vivo): 40%

Compound: CCCCC(=O)OCC(=O)[C@]1(O)Cc2c(O)c3c(c(O)c2[C@@H](O[C@H]2C[C@H](NC(=O)C(F)(F)F)[C@H](O)[C@H](C)O2)C1)C(=O)c1c(OC)cccc1C3=O [Valrubicin, N-trifluoroacetyladriamycin-14-valerate]
- patients treated in whom results are seen (bladder cancer): 20%
- High grade intraepithelial neoplasia (carcinoma in situ-Tis), animals [8, 10]: 2 (20%) n (%)
- Low grade intraepithelial neoplasia, animals [8, 10]: 5 (50%) n (%)
- Normal, animals [8, 10]: 1 (10%) n (%)
- Papillary carcinoma (Ta), animals [8, 10]: 1 (10%) n (%)
- Squamous metaplasia, animals [8, 10]: 1 (10%) n (%)
- therapeutic effectiveness / efficacy [8, 11]: 10%
- Flat hyperplasia, animals ([2]; n = 10): 1(10%)
- High-grade intraepithelial carcinoma (carcinoma in situ-Tis), animals ([2]; n = 10): 2(20%)
- Low-grade intraepithelial carcinoma, animals ([2]; n = 10): 4(40%)
- Papillary carcinoma (Ta), animals ([2]; n = 10): 1(10%)
- Papillary hyperplasia, animals ([2]; n = 10): 1(10%)
- Squamous metaplasia, animals ([2]; n = 10): 1(10%)
- Toxicology: Presence of hematuria, number of animals (Fischer 344, rat, in vivo): N = 10
- Toxicology: Presence of hematuria (n = 10): Positive
- Toxicology: Presence of hematuria, % of animals (n = 10): 100%
- Toxicology: (Hematuria) [9]: Positive
- Toxicology: (Hematuria), % of animals [9]: (100%)

Compound: CO[C@@]12[C@H](COC(N)=O)C3=C(C(=O)C(C)=C(N)C3=O)N1C[C@@H]1N[C@@H]12 [Mitomycin C]
- patients with no recurrence of cancer during the follow-up period (bladder cancer): 19%
- recurrence rate after 5 years (bladder cancer): 64%
- Bladder contraction, (%) patients affected [1]: <2%
- Hematuria, (%) patients affected [1]: 10%
- Myelosuppression, (%) patients affected [1]: <10%
- animals that had cancer after treatment [8, 11]: 50%
- Flat hyperplasia, animals ([2]; n = 10): 1(10%)
- High-grade intraepithelial carcinoma (carcinoma in situ-Tis), animals ([2]; n = 10): 3(30%)
- Low-grade intraepithelial carcinoma, animals ([2]; n = 10): 6(60%)
- Normal, animals ([2]; n = 10): 0%
